The values below come from patent US11597724B2, “Herbicidally active 3-phenylisoxazoline-5-carboxamides of tetrahydro and dihydrofuran carboxylic acids and esters” (Bayer Aktiengesellschaft, priority 2017, dated 2023).

Common to all, as to format: in vivo
The test system of one experiment is Polygonum convolvulus. Nature of the experiment: Pre-emergence herbicidal activity against POLCO. Conditions: dosage 80 g/ha; for pest or weed control at 80 g/ha: Fallopia convolvulus, 504 h. The text has this:
(§1) 1. Pre-Emergence Herbicidal Action and Crop Plant Compatibility Seeds of monocotyledonous and dicotyledonous weed plants and crop plants are placed in plastic or wood fiber pots and covered with soil. The compounds of the invention, formulated in the form of wettable powders (WP) or as emulsion concentrates (EC), are then applied onto the surface of the covering soil as aqueous suspension or emulsion with addition of 0.5% additive at a water application rate of 600 l/ha (converted). After the treatment, the pots are placed in a greenhouse and kept under good growth conditions for the trial plants. After about 3 weeks, the effect of the preparations is scored visually in comparison with untreated controls as percentages. For example, 100% activity=the plants have died, 0% activity=like control plants. POLCO: Polygonum convolvulus SETVI: Setaria viridis

The test system of experiment [1] is Viola tricolor. Nature of the experiment: Pre-emergence herbicidal activity against VIOTR. Conditions: dosage 80 g/ha.
Excerpt: as §1, with “VIOTR: Viola tricolor” for “POLCO: Polygonum convolvulus SETVI: Setaria viridis”

In a further experiment the test system is Amaranthus retroflexus. Put plainly: Post-emergence herbicidal activity against AMARE. The following applies: dosage 320 g/ha, rated about 3 weeks after treatment; for pest or weed control at 320 g/ha: Amaranthus retroflexus, 504 h. The procedure, abridged: (§2)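 Greenhouse pots of sandy loam; plants sprayed at one-leaf stage, 2 to 3 weeks after sowing, with WP or EC formulations in water plus 0.5% additive at 600 l/ha. Activity rated visually after about 3 weeks against untreated controls (100% = plants dead, 0% = like control).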

The subject of experiment [2] is Viola tricolor. Nature of the experiment: Post-emergence herbicidal activity against VIOTR. Conditions: dosage 320 g/ha, rated about 3 weeks after treatment; for pest or weed control at 320 g/ha: Viola tricolor, 504 h. The procedure, abridged:
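Greenhouse plants in sandy loam treated at one-leaf stage, 2 to 3 weeks after sowing, by spraying WP or EC formulations with 0.5% additive at 600 l/ha water. Activity rated visually after about 3 weeks versus untreated controls, 100% = plants dead, 0% = like control.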

In a further experiment the test system is Avena fatua. Put plainly: Post-emergence herbicidal activity against AVEFA. The following applies: dosage 320 g/ha, rated about 3 weeks after treatment; for pest or weed control at 320 g/ha: Avena fatua, 504 h. The procedure, abridged:
as §2

A short description of experiment [3]: Post-emergence treatment, summary over harmful plants. Conditions: 504 h, application rate of 0.32 kg of active substance or less per hectare, read-out: herbicidal action, post-emergence treatment (very good herbicidal activity). The procedure, abridged: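 Greenhouse-grown weeds and crops were sprayed at the one-leaf stage (2–3 weeks post-sowing) with WP or EC formulations plus 0.5% additive at 600 l/ha water. About 3 weeks later, activity was visually rated against untreated controls (100% = dead plants, 0% = like control).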

For the compound `C=C[C@]1(C(=O)N[C@H]2CO[C@@H](C(=O)OC(C)C)C2)CC(c2cc(F)cc(F)c2)=NO1` (mixture of isomers) [I-36, isopropyl cis-4-[[(5S)-3-(3,5-difluorophenyl)-5-vinyl-4H-isoxazole-5-carbonyl]amino]tetrahydrofuran-2-carboxylate], in the experiment with Polygonum convolvulus, the pest or weed control at 80 g/ha was 100%. The “Pre-emergence herbicidal activity against VIOTR in %” value with Viola tricolor [1] came to 100%. The pest or weed control at 320 g/ha with Amaranthus retroflexus is 90%; with Viola tricolor [2] it was 90%; with Avena fatua it was 90%; in experiment [3] it was 80 to 100%.

As for `CC1(C(=O)NC2COC(C(=O)OCc3ccccc3)C2)CC(c2cc(F)cc(F)c2)=NO1` (mixture of isomers) [I-45], in the experiment with Polygonum convolvulus, the “Pre-emergence herbicidal activity against POLCO in %” value was determined as 100%. Further, the “Pre-emergence herbicidal activity against VIOTR in %” value in the experiment with Viola tricolor [1] worked out at 100%. Also, the “Post-emergence herbicidal activity against AMARE in %” value in the experiment on Amaranthus retroflexus turned out to be 80%. Moreover, the “Post-emergence herbicidal activity against VIOTR in %” value with Viola tricolor [2] is reported as 90%. Moreover, the “Post-emergence herbicidal activity against AVEFA in %” value in the experiment with Avena fatua is given as 100%.

As to `CC(C)(C)OC(=O)C1CC(NC(=O)C2(C)CC(c3cc(F)cc(F)c3)=NO2)CO1` (mixture of isomers) [I-42], the “Pre-emergence herbicidal activity against POLCO in %” value in the experiment on Polygonum convolvulus was 100%. Moreover, the “Pre-emergence herbicidal activity against VIOTR in %” value in the experiment on Viola tricolor [1] is 100%. In addition, the “Post-emergence herbicidal activity against AMARE in %” value in the experiment on Amaranthus retroflexus is on record as 80%. In the experiment with Viola tricolor [2], the “Post-emergence herbicidal activity against VIOTR in %” value worked out at 90%. The “Post-emergence herbicidal activity against AVEFA in %” value in the experiment on Avena fatua was found to be 100%.

In the case of `CC(C)OC(=O)C1CC(NC(=O)C2(C)CC(c3cc(F)cc(F)c3)=NO2)CO1` (stereo not drawn) [I-44], the “Pre-emergence herbicidal activity against POLCO in %” value in the experiment with Polygonum convolvulus was found to be 100%. Besides, the “Pre-emergence herbicidal activity against VIOTR in %” value in the experiment on Viola tricolor [1] was 80%. In the experiment on Amaranthus retroflexus, the “Post-emergence herbicidal activity against AMARE in %” value was 80%. Further, the “Post-emergence herbicidal activity against VIOTR in %” value in the experiment with Viola tricolor [2] was 90%. In the experiment with Avena fatua, the “Post-emergence herbicidal activity against AVEFA in %” value came out at 100%.

The compound `COC(=O)C1=C[C@@H](NC(=O)C2(C)CC(c3cccc(F)c3)=NO2)CO1` (stereo partly drawn) [I-46, methyl (3R)-3-[[3-(3-fluorophenyl)-5-methyl-4H-isoxazole-5-carbonyl]amino]-2,3-dihydrofuran-5-carboxylate] came in with a pest or weed control at 80 g/ha in the experiment with Polygonum convolvulus of 90%. Besides, the pest or weed control at 320 g/ha in the experiment with Amaranthus retroflexus was 80%; in the experiment on Viola tricolor [2] it was 90%; in the experiment with Avena fatua, 100%; in experiment [3] it was 80 to 100%.

In the experiment with Polygonum convolvulus, `CC(C)(C)OC(=O)[C@H]1C[C@@H](NC(=O)C2(C)CC(c3cccc(F)c3)=NO2)CO1` (mixture of isomers) [I-33, tert-butyl cis-4-[[(5RS)-3-(3-fluorophenyl)-5-methyl-4H-isoxazole-5-carbonyl]amino]tetrahydrofuran-2-carboxylate] came in with a pest or weed control at 80 g/ha of 90%. Besides, the pest or weed control at 320 g/ha was 90% in the experiment with Amaranthus retroflexus, 100% with Avena fatua and 80 to 100% in experiment [3].

`CC1(C(=O)N[C@H]2CO[C@@H](C(=O)OCc3ccccc3)C2)CC(c2cccc(F)c2)=NO1` (mixture of isomers) [I-34, benzyl cis-4-[[(5RS)-3-(3-fluorophenyl)-5-methyl-4H-isoxazole-5-carbonyl]amino]tetrahydrofuran-2-carboxylate] returned a pest or weed control at 80 g/ha with Polygonum convolvulus of 90%. The pest or weed control at 320 g/ha in the experiment with Amaranthus retroflexus is 80%; in the experiment on Avena fatua, 100%; in experiment [3], 80 to 100%.

Take `COC(=O)C1=C[C@H](NC(=O)C2(C)CC(c3cccc(F)c3)=NO2)CO1` (stereo partly drawn) [I-39, methyl (3S)-3-[[3-(3-fluorophenyl)-5-methyl-4H-isoxazole-5-carbonyl]amino]-2,3-dihydrofuran-5-carboxylate]: the pest or weed control at 80 g/ha in the experiment on Polygonum convolvulus is 80%. Further, the pest or weed control at 320 g/ha was determined as 80% in the experiment on Amaranthus retroflexus, 80% with Viola tricolor [2] and 100% with Avena fatua.

With `COC(=O)[C@H]1C[C@@H](NC(=O)C2(C)CC(c3cc(F)cc(F)c3)=NO2)CO1` (relative stereo) [I-01, methyl cis-4-[[3-(3,5-difluorophenyl)-5-methyl-4H-isoxazole-5-carbonyl]amino]tetrahydrofuran-2-carboxylate], in the experiment with Polygonum convolvulus, the pest or weed control at 80 g/ha was 80%. In addition, the pest or weed control at 320 g/ha with Amaranthus retroflexus is 80%; with Viola tricolor [2], 90%; with Avena fatua it was 100%; in experiment [3] it was 80 to 100%.

`COC(=O)C1COCC1NC(=O)C1(OC)CC(c2cc(F)cc(F)c2)=NO1` (stereo not drawn) [I-27, methyl 4-[[3-(3,5-difluorophenyl)-5-methoxy-4H-isoxazole-5-carbonyl]amino]tetrahydrofuran-3-carboxylate] displayed a pest or weed control at 80 g/ha in the experiment with Polygonum convolvulus of 80%. Also, the “Pre-emergence herbicidal activity against VIOTR in %” value with Viola tricolor [1] is 90%. In addition, the pest or weed control at 320 g/ha in the experiment with Viola tricolor [2] was 80%; with Avena fatua, 90%; in experiment [3], 80 to 100%.

In the case of `COC(=O)C1COCC1NC(=O)C1(C)CC(c2cc(F)cc(F)c2)=NO1` (stereo not drawn) [I-19, methyl 4-[[3-(3,5-difluorophenyl)-5-methyl-4H-isoxazole-5-carbonyl]amino]tetrahydrofuran-3-carboxylate], in the experiment on Polygonum convolvulus, the pest or weed control at 80 g/ha was found to be 90%. Moreover, the pest or weed control at 320 g/ha in the experiment on Amaranthus retroflexus was 90%; in the experiment on Viola tricolor [2], 80%; in the experiment with Avena fatua it was 100%; in experiment [3] it was 80 to 100%.

Compound `C=CC1(C(=O)N[C@H]2CO[C@@H](C(=O)O)C2)CC(c2cc(F)cc(F)c2)=NO1` (relative stereo) [I-21, cis-4-[[3-(3,5-difluorophenyl)-5-vinyl-4H-isoxazole-5-carbonyl]amino]tetrahydrofuran-2-carboxylic acid] yielded a pest or weed control at 80 g/ha in the experiment on Polygonum convolvulus of 90%. The pest or weed control at 320 g/ha in the experiment on Amaranthus retroflexus was 100%; in the experiment on Viola tricolor [2] it was 80%; in the experiment on Avena fatua, 90%; in experiment [3], 80 to 100%.

With `COC(=O)C1CC(NC(=O)C2(C(C)(F)F)CC(c3cc(F)cc(F)c3)=NO2)CO1` (stereo not drawn) [I-49], the “Pre-emergence herbicidal activity against POLCO in %” value in the experiment on Polygonum convolvulus is 100%. Also, the “Pre-emergence herbicidal activity against VIOTR in %” value with Viola tricolor [1] turned out to be 100%. The “Post-emergence herbicidal activity against VIOTR in %” value in the experiment with Viola tricolor [2] is on record as 80%. For the same compound, in the experiment on Avena fatua, the “Post-emergence herbicidal activity against AVEFA in %” value worked out at 80%.

As for `CCOC(=O)C1CC(NC(=O)C2(C)CC(c3cc(F)cc(F)c3)=NO2)CO1` (mixture of isomers) [I-43], the “Pre-emergence herbicidal activity against POLCO in %” value with Polygonum convolvulus came out at 100%. Also, in the experiment on Viola tricolor [1], the “Pre-emergence herbicidal activity against VIOTR in %” value was 90%. For the same compound, the “Post-emergence herbicidal activity against AMARE in %” value in the experiment on Amaranthus retroflexus was 80%. Besides, in the experiment with Viola tricolor [2], the “Post-emergence herbicidal activity against VIOTR in %” value was determined as 90%. Also, in the experiment on Avena fatua, the “Post-emergence herbicidal activity against AVEFA in %” value stood at 100%.

With `C=C[C@]1(C(=O)N[C@H]2CO[C@@H](C(=O)OC)C2)CC(c2cc(F)cc(F)c2)=NO1` (single isomer, unassigned) [I-11], the “Pre-emergence herbicidal activity against POLCO in %” value in the experiment with Polygonum convolvulus stood at 100%. Besides, in the experiment on Viola tricolor [1], the “Pre-emergence herbicidal activity against VIOTR in %” value came out at 100%. For the same compound, the pest or weed control at 320 g/ha in the experiment with Amaranthus retroflexus stood at 90%; in the experiment on Viola tricolor [2] it was 90%; in the experiment on Avena fatua, 100%.

As to `COC(=O)C1CC(NC(=O)C2(C)CC(c3cc(F)cc(F)c3)=NO2)CO1` (mixture of isomers) [I-48], the “Pre-emergence herbicidal activity against POLCO in %” value with Polygonum convolvulus came to 100%. The “Pre-emergence herbicidal activity against VIOTR in %” value in the experiment with Viola tricolor [1] turned out to be 100%. Moreover, the “Post-emergence herbicidal activity against AMARE in %” value in the experiment with Amaranthus retroflexus is 80%. In addition, the “Post-emergence herbicidal activity against VIOTR in %” value with Viola tricolor [2] was 80%. In addition, the “Post-emergence herbicidal activity against AVEFA in %” value in the experiment with Avena fatua is recorded as 80%.

In the experiment with Polygonum convolvulus, `CC(C)OC(=O)[C@H]1C[C@@H](NC(=O)C2(C)CC(c3cccc(F)c3)=NO2)CO1` (mixture of isomers) [I-32, isopropyl cis-4-[[(5RS)-3-(3-fluorophenyl)-5-methyl-4H-isoxazole-5-carbonyl]amino]tetrahydrofuran-2-carboxylate] registered a pest or weed control at 80 g/ha of 90%. Moreover, the pest or weed control at 320 g/ha with Amaranthus retroflexus was 80%; with Avena fatua, 100%; in experiment [3] it was 80 to 100%.
